# Measured values from patent US11096975B2, “Compositions for use in the treatment of tumors resistant to chemotherapy” (PROBIOTICAL S.P.A., priority 2015, dated 2021).
# Key:
# [1] = test system: MDA-MB-231 (breast adenocarcinoma); assay: Cell viability of chemoresistant MDA-MB-231 cells (Tables 1, 2, 4)
# From the text: (§1) The activity of the association of at least one flavonoid with synthetic chemotherapeutic agents (cyclophosphamide/methotrexate) and/or arctigenin, arctiin, berberine, berbamine, sanguinarine and chelerythrine (indicated with the term “Extracts” in the Tables) was studied in resistant cell lines of adenocarcinomas and carcinomas in comparison with chemosensitive tumour cell lines and line cells.
# (§2) In particular, chemoresistant human tumour cells MDA-MB-231 (breast adenocarcinoma), ECV-304 (bladder carcinoma), HuH-7 (hepatocellular carcinoma) and HTB-43 (squamous cell carcinoma of the pharynx), chemosensitive tumour cells MCF-7 (breast adenocarcinoma) and non-tumoral healthy human mammal fibroblasts (HMF) were used.
# in vitro = details: human
# From the text: as §1, §2
# MDA-MB-231 cells = assay: Cell viability of MDA-MB-231 cells after 7 days of treatment (Tables 7-9); type: cell-based, human
# [2] = test system: MCF-7 (breast adenocarcinoma); assay: Cell viability of chemosensitive MCF-7 cells (Table 1); details: Homo sapiens, MCF7, read-out: Cell viability (%) MCF-7
# From the text: as §1, §2
# [3] = test system: healthy human mammal fibroblasts (HMF); assay: Cell viability of non-tumoral healthy fibroblasts HMF (Table 1); details: control = 100
# From the text: as §1, §2
# [4] = test system: HuH-7 (hepatocellular carcinoma); assay: cells; details: Homo sapiens, Huh-7, read-out: Cell viability (%) HuH-7
# From the text: as §1, §2
# [5] = test system: HTB-43 (squamous cell carcinoma of the pharynx); assay: cells; details: Homo sapiens, read-out: Cell viability (%) HTB-43
# From the text: as §1, §2
# [6] = test system: ECV-304 (bladder carcinoma); assay: cells; details: Homo sapiens, ECV-304, read-out: Cell viability (%) ECV-304
# From the text: as §1, §2
# [7] = Homo sapiens, MDA-MB-231, read-out: Cell viability (%) MDA-MB-231
structure (smiles),measurement,setting,value
"C[C@@H]1O[C@@H](OC[C@H]2O[C@@H](Oc3c(-c4ccc(O)c(O)c4)oc4cc(O)cc(O)c4c3=O)[C@H](O)[C@@H](O)[C@@H]2O)[C@H](O)[C@H](O)[C@H]1O [Rutin, 2-(3,4-dihydroxyphenyl)-4,5-dihydroxy-3-{3,4,5-trihydroxy-6-[(3,4,5-trihydroxy-6-methyl-oxan-2-yl)oxymethyl}oxan-2-yl]oxy-chromen-7-one]",viability at 20 µM,[1]; [7],66%
same,viability at 50 µM,[1]; [7],58%
same,viability at 100 µM,[1]; [7],51%
same,viability at 20 µM,in vitro,92%
same,viability at 50 µM,in vitro,88%
same,viability at 100 µM,in vitro,86%
same,Effect on cell viability of adding the flavonoid to cyclophosphamide 20 μM+methotrexate 2 μM,"MDA-MB-231 cells; 20 μM of rutin, MDA-MB-231, 7 days",further reduces cell viability
same,Effect on cell viability of adding the flavonoid to cyclophosphamide 40 μM+methotrexate 4 μM,"MDA-MB-231 cells; rutin at 100 μM and 50 μM, MDA-MB-231, 7 days",no statistically relevant difference
same,viability at 20 µM,[2],8%
same,viability at 50 µM,[2],5%
same,viability at 100 µM,[2],4%
"O=c1c(O)c(-c2ccc(O)c(O)c2)oc2cc(O)cc(O)c12 [Quercetin, quercetin]",viability at 20 µM,[1]; [7],91%
same,viability at 50 µM,[1]; [7],81%
same,viability at 100 µM,[1]; [7],76%
same,Synergistic effect in association with cyclophosphamide,"[1]; MDA-MB-231 cells, alone or with cyclophosphamide 850 ng/mL",absence of synergistic effects
"O=P1(N(CCCl)CCCl)NCCCO1 (stereo not shown) [Cyclophosphamide, cyclophosphamide]",viability at 0.85 µg/mL,[1]; [7],96%
same,viability at 1 µg/mL,[1]; [7],93%
same,viability at 1.3 µg/mL,[1]; [7],89%
same,Cell viability (%) HMF,[3]; single agent at 850 ng/mL,54%
same,Cell viability (%) HMF,[3]; single agent at 1000 ng/mL,48%
same,Cell viability (%) HMF,[3]; single agent at 1300 ng/mL,42%
same,viability at 0.85 µg/mL,[4],58%
same,viability at 0.85 µg/mL,[5],36%
same,viability at 0.85 µg/mL,[6],70%
same,viability at 40 µM,"MDA-MB-231 cells; Homo sapiens, MDA-MB-231, 168 h, read-out: Cell viability % (MDA-MB-231, 7 days)",1.07 ± 0.22%
same,viability at 0.85 µg/mL,[2],6.9%
same,viability at 1 µg/mL,[2],7.5%
same,viability at 1.3 µg/mL,[2],8.6%
